How the values were obtained:
d-U937 cells = assay: Cell viability: MTT assay; assay type: cell-based, human; conditions: 1 μg/mL
Method in brief: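 Differentiated U937 cells were exposed to compound at 1 or 10 μg/mL either 4 h in 5% FCS RPMI1640 or 24 h in 10% FCS RPMI1640, then given MTT for 1 h, DMSO-solubilised and read at 550 nm. Percent viability loss versus 0.5% DMSO vehicle; apparent gains appear negative.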

Syk = Syk (Homo sapiens (Human), UniProt P43405); assay: Syk enzyme inhibition (FRET, Z-LYTE); assay type: biochemical
Method in brief: (§1)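 Z-LYTE FRET kinase assay: enzyme (3000 or 2000 ng/mL stock, respectively) preincubated 2 h at RT with compound (4–0.004 μg/mL stocks), then FRET peptide plus ATP (800 μM stock for c-Src, 60 μM for Syk) added for 1 h. Protease development 1 h; phosphorylation from coumarin/fluorescein emission ratio.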

[1] = test system: Poly I:C-induced ICAM-1 expression in BEAS2B cells; assay: Poly I:C-induced ICAM-1 expression in BEAS2B cells; assay type: cell-based; conditions: Homo sapiens, BEAS-2B, read-out: Poly IC induced ICAM1 in BEAS2B IC50
Method in brief: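 BEAS2B human bronchial epithelial cells pre-incubated with compound for 2 hr, then transfected with 1 μg/mL poly I:C plus Oligofectamine. At 18 hr, surface ICAM-1 measured by cell-based ELISA (HRP, OD450–655). Signal corrected for cell number by crystal violet OD595.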

p38 MAPKα = p38 MAPKα (Homo sapiens (Human), UniProt Q16539); assay: p38 MAPKα enzyme inhibition (FRET, Z-LYTE); assay type: biochemical
Sequence of p38 MAPKα (Q16539 whole entry): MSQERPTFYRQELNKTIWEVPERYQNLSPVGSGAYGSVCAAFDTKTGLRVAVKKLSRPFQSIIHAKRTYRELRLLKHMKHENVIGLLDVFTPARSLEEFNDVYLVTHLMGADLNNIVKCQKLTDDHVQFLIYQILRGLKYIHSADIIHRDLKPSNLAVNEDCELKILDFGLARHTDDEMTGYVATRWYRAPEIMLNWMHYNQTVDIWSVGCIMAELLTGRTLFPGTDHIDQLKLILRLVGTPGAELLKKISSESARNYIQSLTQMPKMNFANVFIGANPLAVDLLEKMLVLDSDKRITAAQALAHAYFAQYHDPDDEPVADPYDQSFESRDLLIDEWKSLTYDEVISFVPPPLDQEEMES

[2] = test system: LPS-induced TNFα release in d-U937 cells; assay: LPS-induced TNFα release in d-U937 cells; assay type: cell-based; conditions: Homo sapiens, dU937, relative to 10 μg/mL BIRB796, read-out: LPS Induced Release of Cytokine in d-937 Cells TNFα REC50
Method in brief: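 Human monocytic U937 cells were differentiated to macrophage-type cells with PMA (100 ng/mL) for 48 to 72 hr, pre-treated with test compound for 2 hr, then stimulated 4 hr with E. coli O111:B4 LPS (0.1 μg/mL). Supernatant TNFα and IL-8 were measured by sandwich ELISA; REC50 came from concentration-response curves.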

GSK3α = GSK3α (Homo sapiens (Human), UniProt P49840); assay: GSK 3α enzyme inhibition (FRET, Z-LYTE); assay type: biochemical
Sequence of GSK3α (P49840 whole entry): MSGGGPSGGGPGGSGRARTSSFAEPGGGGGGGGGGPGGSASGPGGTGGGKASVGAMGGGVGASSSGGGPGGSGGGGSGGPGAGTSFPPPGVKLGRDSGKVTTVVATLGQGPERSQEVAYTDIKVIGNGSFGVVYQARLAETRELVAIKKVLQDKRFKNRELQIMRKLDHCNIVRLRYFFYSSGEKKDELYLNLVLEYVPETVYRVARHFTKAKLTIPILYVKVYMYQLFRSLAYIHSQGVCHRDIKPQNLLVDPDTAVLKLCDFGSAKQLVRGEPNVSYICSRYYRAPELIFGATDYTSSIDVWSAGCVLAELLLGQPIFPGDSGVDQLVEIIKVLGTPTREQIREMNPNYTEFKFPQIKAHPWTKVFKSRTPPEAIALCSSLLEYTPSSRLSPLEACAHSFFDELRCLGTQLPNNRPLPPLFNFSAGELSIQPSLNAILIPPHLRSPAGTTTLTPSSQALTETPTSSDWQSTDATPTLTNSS
Method in brief: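 GSK3α (500 ng/mL stock) was preincubated 2 hr at RT with compound (4 to 0.004 μg/mL stocks), then FRET peptide (8 μM stock) and ATP (40 μM stock) added for 1 hr. Protease development for 1 hr cleaved unphosphorylated peptide; coumarin/fluorescein emission ratio reported phosphorylation.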

cSrc = cSrc (Homo sapiens (Human), UniProt P12931); assay: c-Src enzyme inhibition (FRET, Z-LYTE); assay type: biochemical
Sequence of cSrc (P12931 whole entry, looked up): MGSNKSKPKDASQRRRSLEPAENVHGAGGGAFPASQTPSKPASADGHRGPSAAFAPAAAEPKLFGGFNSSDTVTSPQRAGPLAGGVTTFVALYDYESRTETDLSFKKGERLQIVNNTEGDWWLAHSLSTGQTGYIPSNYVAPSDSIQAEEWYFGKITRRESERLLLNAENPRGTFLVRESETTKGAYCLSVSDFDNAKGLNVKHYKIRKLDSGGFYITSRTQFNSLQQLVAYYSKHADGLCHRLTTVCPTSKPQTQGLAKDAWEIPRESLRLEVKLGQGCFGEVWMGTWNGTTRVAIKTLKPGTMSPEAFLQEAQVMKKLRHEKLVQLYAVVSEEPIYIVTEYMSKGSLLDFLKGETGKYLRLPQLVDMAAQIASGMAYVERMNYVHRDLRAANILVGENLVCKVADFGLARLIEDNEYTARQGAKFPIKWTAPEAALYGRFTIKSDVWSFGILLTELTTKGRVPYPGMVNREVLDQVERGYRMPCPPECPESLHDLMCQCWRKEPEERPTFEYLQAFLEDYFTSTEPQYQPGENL
Method in brief: as §1

[3] = test system: LPS-induced IL-8 release in d-U937 cells; assay: LPS-induced IL-8 release in d-U937 cells; assay type: cell-based; conditions: Homo sapiens, dU937, read-out: LPS Induced Release of Cytokine in d-937 Cells IL-8 IC50
Method in brief: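 First, U937 monocytes undergo PMA treatment (100 ng/mL) for 48 to 72 hr to become macrophage-type. Next, compound at final concentrations is added for 2 hr, followed by LPS at 0.1 μg/mL for 4 hr. Finally, cytokines in the supernatant are quantified by ELISA against vehicle-treated cells.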

SMILES	MTT Assay Cell viability at time point in d-U937 cells 4 h (d-U937 cells)	MTT Assay Cell viability at time point in d-U937 cells 24 h (d-U937 cells)	IC50 (Syk)	IC50 [1]	IC50 (p38 MAPKα)	EC50 [2]	IC50 (GSK3α)	IC50 (cSrc)	IC50 [3]
CC(C)(C)c1cc(NC(=O)Nc2ccc(Oc3ccnc(Nc4ccc5c(c4)CCC5)n3)c3ccccc23)n(-c2ccc(OCCN3CCOCC3)cc2)n1 [Example 59, 1-(3-(tert-butyl)-1-(4-(2-morpholinoethoxy)phenyl)-1H-pyrazol-5-yl)-3-(4-((2-((2,3-dihydro-1H-inden-5-yl)amino)pyrimidin-4-yl)oxy)naphthalen-1-yl)urea]	−ve (−ve and +ve indicate that the value is below and above respectively, the no significant effect threshold, defined as 30% inhibition at 1 μg/mL at the time point indicated.)	−ve (−ve and +ve indicate that the value is below and above respectively, the no significant effect threshold, defined as 30% inhibition at 1 μg/mL at the time point indicated.)	28 nM	0.1 nM	98 nM	12.6 nM	> 9230 nM	23 nM	16.8 nM
CC(C)(C)c1cc(NC(=O)Nc2ccc(Oc3ccnc(Nc4ccc5c(cnn5CCN5CCOCC5)c4)n3)c3ccccc23)n(-c2ccc(OCCN3CCOCC3)nc2)n1 [Example 92, 1-(3-(tert-butyl)-1-(6-(2-morpholinoethoxy)pyridin-3-yl)-1H-pyrazol-5-yl)-3-(4-((2-((1-(2-morpholinoethyl)-1H-indazol-5-yl)amino)pyrimidin-4-yl)oxy)naphthalen-1-yl)urea]	−ve (−ve and +ve indicate that the value is below and above respectively, the no significant effect threshold, defined as 30% inhibition at 1 μg/mL at the time point indicated.)	−ve (−ve and +ve indicate that the value is below and above respectively, the no significant effect threshold, defined as 30% inhibition at 1 μg/mL at the time point indicated.)	< 1 nM	5.3 nM	5 nM	1.5 nM	569 nM	< 1 nM	11.5 nM
CC(C)c1cc(NC(=O)Nc2ccc(Oc3ccnc(Nc4ccc5[nH]ncc5c4)n3)c3ccccc23)n(-c2ccc(OCCN3CCOCC3)cc2)n1 [Example 69, 1-(4-((2-((1H-indazol-5-yl)amino)pyrimidin-4-yl)oxy)naphthalen-1-yl)-3-(3-isopropyl-1-(4-(2-morpholinoethoxy)phenyl)-1H-pyrazol-5-yl)urea]	−ve (−ve and +ve indicate that the value is below and above respectively, the no significant effect threshold, defined as 30% inhibition at 1 μg/mL at the time point indicated.)	−ve (−ve and +ve indicate that the value is below and above respectively, the no significant effect threshold, defined as 30% inhibition at 1 μg/mL at the time point indicated.)	5 nM	8.1 nM	18 nM	0.4 nM	1280 nM	3 nM	3.4 nM
COc1ccc(-n2nc(C(C)(C)C)cc2NC(=O)Nc2ccc(Oc3ccnc(Nc4ccc5[nH]nc(OCCN6CCOCC6)c5c4)n3)c3ccccc23)cc1 [Example 45, 1-(3-(tert-butyl)-1-(4-methoxyphenyl)-1H-pyrazol-5-yl)-3-(4-((2-((3-(2-morpholinoethoxy)-1H-indazol-5-yl)amino)pyrimidin-4-yl)oxy)naphthalen-1-yl)urea]	−ve (−ve and +ve indicate that the value is below and above respectively, the no significant effect threshold, defined as 30% inhibition at 1 μg/mL at the time point indicated.)	−ve (−ve and +ve indicate that the value is below and above respectively, the no significant effect threshold, defined as 30% inhibition at 1 μg/mL at the time point indicated.)	3 nM	1.2 nM	17 nM	0.9 nM	407 nM	5 nM	1.6 nM

Source: US9249125B2, “Pyrazole derivatives as p38 MAP inhibitors” (RESPIVERT LIMITED, priority 2012, dated 2016)
